Data reported in PubChem BioAssay AID2060511 (Molecular Pharmacology Branch, DTP, NCI, 2025).

Test system: 422866-222-R5-J1-PDC spheroids with HUVEC/MSC, viability
Experiment: Anticancer human tumor 422866-222-R5-J1-PDC patient-derived pancreatic adenocarcinoma cell line growth inhibition [GQUAD]
Conditions: for IC50: curve of first compound; for viability, T/C: stronger effect = lower value
Summary of the method: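 Viability of tumor cells grown as complex spheroids with endothelial and stromal cells, exposed to drug combinations. Top concentration at or near clinical Cmax (else 10 microM), diluted in half-log increments.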

[1] = second compound 0.0316 µM, first compound 0.0316 µM
[2] = second compound 0.0316 µM, first compound 0.1 µM
[3] = second compound 0.0316 µM, first compound 0.316 µM
[4] = second compound 0.0316 µM, first compound 1 µM
[5] = second compound 0.0316 µM, first compound 3.16 µM
[6] = second compound 0.0316 µM, first compound 10 µM
[7] = second compound 0.1 µM, first compound 0.0316 µM
[8] = second compound 0.1 µM, first compound 0.1 µM
[9] = second compound 0.1 µM, first compound 0.316 µM
[10] = second compound 0.1 µM, first compound 1 µM
[11] = second compound 0.1 µM, first compound 3.16 µM
[12] = second compound 0.1 µM, first compound 10 µM
[13] = second compound 0.316 µM, first compound 0.0316 µM
[14] = second compound 0.316 µM, first compound 0.1 µM
[15] = second compound 0.316 µM, first compound 0.316 µM
[16] = second compound 0.316 µM, first compound 1 µM
[17] = second compound 0.316 µM, first compound 3.16 µM
[18] = second compound 0.316 µM, first compound 10 µM
[19] = second compound 1 µM, first compound 0.0316 µM
[20] = second compound 1 µM, first compound 0.1 µM
[21] = second compound 1 µM, first compound 0.316 µM
[22] = second compound 1 µM, first compound 1 µM
[23] = second compound 1 µM, first compound 3.16 µM
[24] = second compound 1 µM, first compound 10 µM
[25] = second compound 3.16 µM, first compound 0.0316 µM
[26] = second compound 3.16 µM, first compound 0.1 µM
[27] = second compound 3.16 µM, first compound 0.316 µM
[28] = second compound 3.16 µM, first compound 1 µM
[29] = second compound 3.16 µM, first compound 3.16 µM
[30] = second compound 3.16 µM, first compound 10 µM
[31] = second compound 10 µM, first compound 0.0316 µM
[32] = second compound 10 µM, first compound 0.1 µM
[33] = second compound 10 µM, first compound 0.316 µM
[34] = second compound 10 µM, first compound 1 µM
[35] = second compound 10 µM, first compound 3.16 µM
[36] = second compound 10 µM, first compound 10 µM
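Also: spheroids exposed to compounds for seven days before reading.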
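For viability, T/C in this document: percent viability relative to DMSO vehicle control taken as 100%.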

Q: For `O=C(c1cc(Cc2n[nH]c(=O)c3ccccc23)ccc1F)N1CCN(C(=O)C2CC2)CC1` + CN(C)c1ccc(Nc2c3ccc(NC(=O)CCN4CCCC4)cc3nc3cc(NC(=O)CCN4CCCC4)ccc23)cc1, which IC50 (second compound 0.0316 µM) is on record?
A: > 10 µM

Q: What about the IC50 (second compound 0.1 µM) of the same molecule?
A: > 10 µM

Q: What about the IC50 (second compound 0.316 µM) of the same molecule?
A: > 10 µM

Q: And the IC50 (second compound 1 µM)?
A: > 10 µM

Q: What about the IC50 (second compound 3.16 µM) of the same molecule?
A: > 10 µM

Q: What about the IC50 (second compound 10 µM) of the same molecule?
A: > 10 µM

Q: What about the viability, T/C [1] of the same molecule?
A: 108%

Q: What about the viability, T/C [2] of the same molecule?
A: 95.8%

Q: What about the viability, T/C [3] of the same molecule?
A: 96.3%

Q: What about the viability, T/C [4] of the same molecule?
A: 99.7%

Q: What about the viability, T/C [5] of the same molecule?
A: 75.7%

Q: What about the viability, T/C [6] of the same molecule?
A: 70.1%

Q: And the viability, T/C [7]?
A: 90.3%

Q: What about the viability, T/C [8] of the same molecule?
A: 95.3%

Q: And the viability, T/C [9]?
A: 84.9%

Q: What about the viability, T/C [10] of the same molecule?
A: 83%

Q: What about the viability, T/C [11] of the same molecule?
A: 93.2%

Q: What about the viability, T/C [12] of the same molecule?
A: 67.5%

Q: What about the viability, T/C [13] of the same molecule?
A: 86.4%

Q: And the viability, T/C [14]?
A: 107%

Q: What about the viability, T/C [15] of the same molecule?
A: 79.7%

Q: What about the viability, T/C [16] of the same molecule?
A: 83.3%

Q: And the viability, T/C [17]?
A: 79.8%

Q: And the viability, T/C [18]?
A: 70.4%

Q: What about the viability, T/C [19] of the same molecule?
A: 80%

Q: What about the viability, T/C [20] of the same molecule?
A: 79.3%

Q: What about the viability, T/C [21] of the same molecule?
A: 78.3%

Q: What about the viability, T/C [22] of the same molecule?
A: 77.4%

Q: What about the viability, T/C [23] of the same molecule?
A: 74.5%

Q: And the viability, T/C [24]?
A: 67.5%

Q: What about the viability, T/C [25] of the same molecule?
A: 87%

Q: And the viability, T/C [26]?
A: 92.3%

Q: And the viability, T/C [27]?
A: 86.5%

Q: And the viability, T/C [28]?
A: 85.7%

Q: And the viability, T/C [29]?
A: 85%

Q: And the viability, T/C [30]?
A: 80.6%

Q: What about the viability, T/C [31] of the same molecule?
A: 81.8%

Q: What about the viability, T/C [32] of the same molecule?
A: 83.6%

Q: And the viability, T/C [33]?
A: 87.4%

Q: And the viability, T/C [34]?
A: 79.5%

Q: And the viability, T/C [35]?
A: 83.6%

Q: And the viability, T/C [36]?
A: 79.9%

Q: What does the source list for `C#Cc1c(F)ccc2cc(O)cc(-c3ncc4c(N5CC6CCC(C5)N6)nc(OCC56CCCN5CC(F)C6)nc4c3F)c12` (centres undefined) + Cc1[nH]c2ccc(F)cc2c1-c1nc2c3cccnc3c3ncccc3c2[nH]1?
A: IC50 (second compound 0.0316 µM): 2.18 µM; IC50 (second compound 0.1 µM): 2.23 µM; IC50 (second compound 0.316 µM): 1.93 µM; IC50 (second compound 1 µM): 2.16 µM; IC50 (second compound 3.16 µM): 0.736 µM; IC50 (second compound 10 µM): 0.998 µM; viability, T/C [1]: 96.1%; viability, T/C [2]: 96.4%; viability, T/C [3]: 84.4%; viability, T/C [4]: 78%; viability, T/C [5]: 30.2%; viability, T/C [6]: 43.2%; viability, T/C [7]: 106%; viability, T/C [8]: 92.1%; viability, T/C [9]: 98.4%; viability, T/C [10]: 75.3%; viability, T/C [11]: 39.1%; viability, T/C [12]: 33.4%; viability, T/C [13]: 106%; viability, T/C [14]: 86%; viability, T/C [15]: 84%; viability, T/C [16]: 64.4%; viability, T/C [17]: 35%; viability, T/C [18]: 37.4%; viability, T/C [19]: 75.9%; viability, T/C [20]: 98.3%; viability, T/C [21]: 91.6%; viability, T/C [22]: 69%; viability, T/C [23]: 40.4%; viability, T/C [24]: 40.8%; viability, T/C [25]: 87.2%; viability, T/C [26]: 75.5%; viability, T/C [27]: 70.6%; viability, T/C [28]: 42.8%; viability, T/C [29]: 30.7%; viability, T/C [30]: 34.6%; viability, T/C [31]: 71.3%; viability, T/C [32]: 57.6%; viability, T/C [33]: 67%; viability, T/C [34]: 46.9%; viability, T/C [35]: 39.4%; viability, T/C [36]: 38%
